Legend:
[1] = system: CDK2 protein in MCF-7/Ac1 cells; test: Western blot of CDK2 protein levels in adenovirus-infected cells; type: cell-based, human; conditions: letrozole
Method: Western blot analysis. Cell lysates were prepared and subjected to western blot analysis as described previously (Akli et al., 2004). Briefly, 50 μg of protein were subjected to electrophoresis on SDS-PAGE and transferred to Immobilon P overnight at 4° C. at […] constant voltage. The blots were blocked overnight at 4° C. in BLOTTO [5% nonfat dried milk in 20 mM Tris, 137 mM NaCl, and 0.05% Tween (pH 7.6)]. After being washed, the blots were incubated in primary antibodies for 3 h. Primary antibodies used were cyclin E (HE-12; Santa Cruz Biotechnology), p21 (0P64; Oncogene Research Products, Boston, Mass.), p27 (K25020; BD Biosciences-Transduction Laboratories, Lexington, Ky.), cyclin-dependent kinase 2 (CDK2; Transduction Laboratories), and actin (Chemicon International, Inc., Temecula, Calif.). Blots were then incubated with goat anti-mouse or anti-rabbit immunoglobulin-horseradish peroxidase conjugate at a dilution of 1:5000 in BLOTTO for 1 h and finally washed and developed by using the Renaissance chemiluminescence system as directed by the manufacturer (Perkin-Elmer Life Sciences, Inc., Boston, Mass.). Western blots were quantitated by densitometric analysis using IPLab Gel software (Scientific Image Processing, Vienna, Va.). Densitometric values of actin were used to standardize for equal protein loading. These values were introduced into the software Graph-Pad Prism version 4.0 (GraphPad Software, Inc., San Diego, Calif.) for statistical analysis.
MCF-7/Ac1 cells were cultured in IMEM with 10% charcoal-stripped serum medium (CSSM) without phenol red and with 600 μg/ml of G418 for 4 days before plating. […] Cells were then infected with the indicated adenoviruses (at 4000 m.o.i.) 24 hours before drug treatment.

MCF-7/Ac1 cells = test: Cell cycle analysis by flow cytometry (PI); type: cell-based, human; conditions: letrozole with 25 nM AD, concentration not given
Method: Cell cycle analysis. MCF-7/Ac1 cells were cultured in estrogen-deprived media with or without 25 nM 4-androstenedione, and treated with different concentrations of aromatase inhibitors. Untreated and drug treated cells were collected 72 hours later for flow cytometry and lysates were prepared for western blot and kinase assays.
Flow cytometry analysis. Cells were pelleted and resuspended in 1.5 ml of PBS, then fixed in 3.5 ml of 95% ethanol overnight at −20° C. After being washed, the pellets were resuspended in a solution of PBS containing 10 μg/ml propidium iodide, 20 μg/ml RNase A, 0.5% Tween 20, and 0.5% BSA and incubated at 37° C. for 30 min. The profiles of cells in the G0-G1, S, and G2-M phases of the cell cycle were analyzed at the M. D. Anderson Cancer Center Cytometry Core Facility on a FACS Caliber machine equipped with Cellquest or ModFit software.
FIGS. 22A-22C show the effect of aromatase inhibitor treatment on proliferative response and cell cycle distribution of MCF-7/Ac1 cells. Cells were cultured in IMEM with 10% charcoal-stripped serum medium (CSSM) without phenol red and with 600 μg/ml of G418 for 4 days before plating. Cells (100,000) were seeded in 100 mm dishes and, 24 hrs later, were exposed for 3 days to the specific treatment. […] Cell growth is expressed as the percentage of the cells compared with the control cells (25 nM AD treated cells, 575,000 cells at day 3). Columns, mean of two to three experiments, each in triplicates; bars, S.D. *, P<0.05, when compared to cells only treated with 25 nM AD; n.s, not significant. CSSM, untreated cells cultured in charcoal-stripped serum medium without phenol red and with 600 μg/ml of G418.

N#Cc1ccc(C(c2ccc(C#N)cc2)n2cncn2)cc1 [letrozole]
CDK2 protein levels ([1]; LMW cyclin E (T1, T2) overexpressing cells): did not drop following letrozole treatment
total CDK2 protein levels, percent of the level in untreated, uninfected cells ([1]; cyclin EL overexpressing cells): 50%
total CDK2 protein levels, percent of the level in uninfected cells ([1]; uninfected and LacZ infected cells): 10%
cells in G0/G1 (MCF-7/Ac1 cells): 61.2+/−1.5%
cells in S phase (MCF-7/Ac1 cells): 13.1+/−2.3%
